Key:
ThS-positive plaque = assay: Thioflavin S staining of amyloid plaques, APP/PS1 mice; format: in vivo; details: cortex and hippocampus; AP5 40 mg/kg once daily 5 months
Experimental: (§1) APP/PS1 mice of ages 6 months were randomly divided into vehicle (APP/PS1, n = 10) and treatment groups (AP5, n = 10), which were intragastrically administered with AP5 (40 mg/kg) once daily for consecutive 5 months. AP5 was dissolved in distilled water containing 1% sodium carboxymethyl cellulose.
The hemisphere slices were stained with 0.5% fluorescent amyloid dye Thioflavin S (ThS, T1892, Sigma Aldrich) in the dark for 10 min followed by three washes with 50% ethyl alcohol and a final wash in PBS. Image analysis of the number and size of cortical and hippocampal ThS positive plaques was carried out on Image J FIJI software with “analyze particles” function.

Iba1+ microglia = assay: Iba1 immunohistochemistry, microglia morphology, APP/PS1 mice; format: in vivo; details: AP5 40 mg/kg once daily 5 months
Experimental: as §1
The fixed hemibrains were paraffin-embedded and sectioned in the coronal plane. The slices were deparaffinized with xylene and rehydrated by a series of gradient alcohols. Antigen retrieval through microwave boiling was performed with 10 mM sodium citrate solution at pH 6.0. The slices were cooled down to room temperature and then rinsed in PBS solution. Then the slices were incubated in 10% goat serum blocking solution for 1 h followed by primary antibodies overnight at 4°C. The next day, the slides were labeled with biotinylated or fluorescent secondary antibodies. Slices were washed three times with PBS before being mounted. Images were captured using a SpinSR10 scanner (Olympus, Tokyo, Japan). […]
After deparaffinization and antigen retrieval, the sections were incubated with 0.3% hydrogen peroxide (H2O2) to inhibit endogenous peroxidase activity for 20 min and blocked by goat serum for 30 min at37°C. Slides were subsequently incubated overnight with specific primary antibodies: anti-Iba1(1:100, ab178847, Abcam, Cambridge, UK) or anti-GFAP (1:100, bs-0199R, Bioss) at4 °C. […]

[1] = tested on: spatial learning and memory; assay: Morris water maze; format: in vivo, APP/PS1 mice; details: after 5 months of treatment
Experimental: as §1
To investigate whether AP5 treatment plays a key role in cognition improvement of APP/PS1 mice models, the five different behavioral tests were sequentially carried out in the following order: open field, novel object recognition task, spatial object-location task, Y-maze, and Morris water maze (MWM). AP5 was also administered daily during the test periods. A set of video analysis systems (TopScan, CleverSys, United States) was used throughout the behavioral tests. […]
the familiar object) / total exploration time for the novel and familiar object.
For the spatial object location task (an object moved to a new location), mice first explored the two objects placed in two corners of the open field for 5 min in training period. After 1 h or 24 h, the mice received a 5 min retention trial with a new spatial configuration with an object moved from one corner to the opposite corner of the open field.The discrimination index was calculated and defined as: (time spent exploring the displaced object-time spent exploring nondisplaced objects) / total exploration time for the two objects during the 5 min retention trial.
Work on spatial recognition memory was tested by Y-maze. The symmetrical Y-maze consisted of three arms joined in the middle to form a Y shape. […] The ratio between the distance spent in the novel arm and the totaldistance travelled in the maze was quantified as preference index. […]
guided to platform and allowed to stay on it for 30 s. The time (escape latency) for each mouse to find the way and reach the target platform was analyzed. […] The parameters measured during the probe trialincluded number of platform crossing and time spent in the target quadrant. […]

CCN(C)C(=O)Oc1cccc(/C=C2\Cc3cc(OC)c(OC)cc3C2=O)c1 [AP5, (E)-3-((5,6-dimethoxy-1-oxo-1,3-dihydro-2H-inden-2-ylidene)-methyl)phenylethyl(methyl)carbamate]
load of ThS-positive plaque (ThS-positive plaque): pronounced reduction
number of ThS-positive plaque (ThS-positive plaque): pronounced reduction
proportion of activated microglia phenotype (Iba1+ microglia): marked decrease
platform crossing number ([1]; MWM probe trial): performed much better
time spent in the target quadrant ([1]; MWM probe trial): performed much better
escape latency ([1]; MWM): performed much better
